Results published in US20050197371A1, “Urea derivatives as PDGFR modulators” (Ambit Biosciences Corporation, priority 2003, published 2005).

target: T1, PDGFRB(DKIN) (PDGFR-β) (Homo sapiens, UniProt P09619); test: Phage-display competitive binding assay, PDGFRB(DKIN); details: T7 phage displaying human PDGFR-β, DKIN construct; read-out: Binding Assay: PDGFRB(DKIN)
T1 construct: PDGFRB(DKIN)
Procedure: The term “ND” represents non-determined values.
Briefly, T7 phage displaying human PDGFR-β were incubated with an affinity matrix coated with known PDGFR-β inhibitor in the presence of various concentrations of the soluble competitor molecules.

Row | Compound | Kd
1 | CN(C)c1ccc(C(=O)Nc2ccc(NC(=O)Nc3cc(C(C)(C)C)on3)cc2)cn1 [Compound N159] | < 0.1 µM
2 | CC(C)(C)c1cc(NC(=O)Nc2ccc(C(=O)Nc3ccc(F)cc3F)cc2)no1 [Compound N153] | 0.1 to 1 µM
3 | CC(C)(C)c1cc(NC(=O)Nc2ccc(OC(F)(F)F)cc2)on1 [Compound A13] | 0.1 to 1 µM
4 | CC(C)(C)c1cc(NC(=O)Nc2ccc(OCc3ccccc3Cl)cc2)no1 [Compound G10] | < 0.1 µM
5 | Cn1nc(C(C)(C)C)cc1C(=O)Nc1ccc(NC(=O)Nc2cc(C(C)(C)C)on2)cc1 [Compound N10] | 0.1 to 1 µM
6 | Cc1cc(NC(=O)Nc2ccc(OCc3ccccc3)cc2)n(-c2ccccc2)n1 [Compound H4] | 1 to 10 µM
7 | CC(C)(C)c1cc(NC(=O)Nc2ccc(NC(=O)c3ccc4cnccc4n3)cc2)no1 [Compound N110] | < 0.1 µM
8 | C=CCOc1ccc(NC(=O)Nc2cc(C(C)(C)C)no2)cc1 [Compound G32] | < 0.1 µM
9 | Cc1ccc(-n2nc(C(C)(C)C)cc2NC(=O)Nc2ccc(OCCN3CCOC(CO)C3)c3ccccc23)cc1 (centres unmarked) [Compound G38] | 0.1 to 1 µM
10 | CC(C)(C)c1cc(NC(=O)Nc2ccc(NC(=O)c3ccccc3O)cc2)no1 [Compound N69] | 1 to 10 µM
11 | CC(C)(C)c1cc(NC(=O)Nc2ccc(OCCN3CCOCC3)c3ccccc23)no1 [Compound A36] | 1 to 10 µM
12 | CCOC(=O)CCc1c(C)[nH]c(C(=O)Nc2ccc(NC(=O)Nc3cc(C(C)(C)C)on3)cc2)c1C [Compound N83] | < 0.1 µM
13 | O=C(Nc1ccc(Cl)cc1)Nc1cc(C2CC2)nn1-c1ccccc1 [Compound D10] | 1 to 10 µM
14 | CC(C)(C)c1cc(NC(=O)Nc2ccc(NC(=O)C(N)Cc3ccccc3F)cc2)no1 (centres unmarked) [Compound N42] | 0.1 to 1 µM
15 | CC(C)(C)c1cc(NC(=O)Nc2ccc(OC(F)F)cc2)no1 [Compound A12] | 0.1 to 1 µM
16 | CC(C)(C)c1cc(NC(=O)Nc2ccc(OCc3ccccc3F)cc2)no1 [Compound G12, 1-(4-(2-fluorobenzyloxy)phenyl)-3-(5-tert-butylisoxazol-3-yl)urea] | < 0.1 µM

Row | Compound | Kd
17 | CC(C)(C)c1cc(NC(=O)Nc2ccc(OCc3ccc(C(=O)c4ccccc4)cc3)cc2)no1 [Compound G9] | 0.1 to 1 µM
18 | Cc1ccc(-c2nc(C(=O)Nc3ccc(NC(=O)Nc4cc(C(C)(C)C)on4)cc3)cs2)cc1 [Compound N178] | < 0.1 µM
19 | Cc1cccc(C(=O)Nc2ccc(NC(=O)Nc3cc(C(C)(C)C)on3)cc2)n1 [Compound N121] | < 0.1 µM
20 | CC(C)(C)c1cc(NC(=O)Nc2ccc(NC(=O)c3cnn(-c4cccc(Cl)c4)c3Br)cc2)no1 [Compound N45] | 0.1 to 1 µM
21 | COc1cc(C(=O)Nc2ccc(NC(=O)Nc3cc(C(C)(C)C)on3)cc2)nc(OC)n1 [Compound N162] | < 0.1 µM
22 | CC(C)(C)c1cc(NC(=O)Nc2ccc(NC(=O)c3csnn3)cc2)no1 [Compound N14] | 0.1 to 1 µM
23 | CCOC(=O)c1cccc(C(=O)Nc2ccc(NC(=O)Nc3cc(C(C)(C)C)on3)cc2)n1 [Compound N164] | < 0.1 µM
24 | CC(C)(C)c1cc(NC(=O)Nc2ccc(C(=O)/C=C/c3ccncc3)cc2)no1 | 0.1 to 1 µM
25 | CC(C)(C)c1cc(NC(=O)Nc2ccc(NC(=O)c3cccnc3C(=O)O)cc2)no1 [Compound N165] | 0.1 to 1 µM
26 | CC(C)Oc1ccc(NC(=O)Nc2cc(C(C)(C)C)no2)cc1 [Compound G33] | < 0.1 µM
27 | CC(C)(C)c1cc(NC(=O)Nc2ccc(NC(=O)CCc3ccccc3)cc2)no1 [Compound N96] | 0.1 to 1 µM
28 | Cc1cnc(C(=O)Nc2ccc(NC(=O)Nc3cc(C(C)(C)C)on3)cc2)c(C(=O)O)n1 [Compound N160] | < 0.1 µM
29 | Cc1c(NC(=O)Nc2cc(C(C)(C)C)on2)c(=O)n(-c2ccccc2)n1C [Compound Z45] | > 10 µM
30 | Cc1nc(N)cc(Nc2ccc(NC(=O)Nc3cc(C(C)(C)C)on3)cc2)n1 [Compound O10] | 0.1 to 1 µM
31 | CC(C)(C)c1cc(NC(=O)Nc2ccc(NC(=O)c3cc4cccnc4nc3C(F)(F)F)cc2)no1 [Compound N61] | 1 to 10 µM

same assay, conditions: read-out: Binding Assay: PDGFRB(DKIN); T7 phage displaying human PDGFR-β, DKIN construct

Row | Compound | Kd
32 | CC(C)(C)c1cc(NC(=O)Nc2ccc(NC(=O)c3cn4c(n3)sc3ccccc34)cc2)no1 [Compound N73] | < 0.1 µM
